Experiments:
[1] = molecular target: T1, Lysine 5,6-aminomutase (5,6-LAM) (Acetoanaerobium sticklandii, UniProt E3PRJ4+E3PRJ5); test: UV-visible and X-band EPR spectroscopy; assay type: binding; conditions: PLP and dAdoCbl holoenzyme, 100 mM NH4-EPPS pH 8.5, 37 °C; 2.5 mM (UV-vis) or 30 mM (EPR) 5-HL; active site, external aldimine with PLP; mechanism-based (suicide) inhibitor; stereoisomer mixture
T1 construct: gene kamD
T1 sequence (E3PRJ5 1-519 limits assumed): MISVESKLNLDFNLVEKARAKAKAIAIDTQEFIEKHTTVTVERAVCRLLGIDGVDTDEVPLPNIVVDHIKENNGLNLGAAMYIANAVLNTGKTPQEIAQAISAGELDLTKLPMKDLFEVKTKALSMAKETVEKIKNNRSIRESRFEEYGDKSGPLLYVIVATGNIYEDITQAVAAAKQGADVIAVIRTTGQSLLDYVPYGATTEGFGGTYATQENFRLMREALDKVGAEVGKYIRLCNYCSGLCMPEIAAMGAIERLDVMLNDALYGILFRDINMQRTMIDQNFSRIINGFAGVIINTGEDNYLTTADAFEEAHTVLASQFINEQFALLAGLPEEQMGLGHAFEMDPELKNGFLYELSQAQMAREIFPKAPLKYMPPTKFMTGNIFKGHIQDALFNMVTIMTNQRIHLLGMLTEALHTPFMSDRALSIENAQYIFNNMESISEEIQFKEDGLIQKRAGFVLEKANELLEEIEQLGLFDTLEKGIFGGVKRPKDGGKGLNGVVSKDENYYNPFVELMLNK
T1 sequence (E3PRJ4 1-262): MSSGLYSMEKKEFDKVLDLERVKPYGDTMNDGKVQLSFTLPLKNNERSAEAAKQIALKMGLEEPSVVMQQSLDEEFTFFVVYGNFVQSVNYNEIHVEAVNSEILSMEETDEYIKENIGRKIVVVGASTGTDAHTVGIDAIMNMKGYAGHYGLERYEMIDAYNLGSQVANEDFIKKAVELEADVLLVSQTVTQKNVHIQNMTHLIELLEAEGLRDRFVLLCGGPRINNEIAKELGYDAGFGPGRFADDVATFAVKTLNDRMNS

[2] = molecular target: T1, Lysine 5,6-aminomutase (5,6-LAM); conditions: turnover to 2,5-DAH at 1 and 3 min; PLP and dAdoCbl as cofactors

| SMILES | UV-visible and X-band EPR spectroscopy [1] | thin-layer chromatography of product, ninhydrin [2] |
| --- | --- | --- |
| NCC(O)CCC(N)C(=O)O (racemic) [5-HL, 5-hydroxylysine] | These spectral changes demonstrate that 5-HL mimics the initial steps of transaldimination and Co–C bond rupture | – |
| NCCCC[C@@H](N)C(=O)O [D-lysine] | – | bottom spot corresponding to D-lysine and the top spot corresponding to the product |

Source: paper PMC12429584, “5-Hydroxylysine Captures the Suicidally-Inactivated Conformational State of Lysine 5,6-Aminomutase” (International Journal of Molecular Sciences, 2025)
